Results taken from US7998681B2, “Diagnosis and therapy of antibody-mediated inflammatory auto-immune disorders” (Los Angeles Biomedical Research Institute at Harbor-UCLA …, priority 2000, dated 2011).

Tested on: IL-16
Assay: IL-16 ELISA of medium from treated fibroblasts, normal donors
Format: cell-based, human
Details: limit of detection 20 pg/ml
From the text: In addition to its therapeutic aspects, the present invention also relates to a diagnostic method for detecting the presence of antibody-activated fibroblasts in the patient. Applicants believe that several auto immune diseases or disorders are associated with antibody-activated fibroblasts. Applicants have shown that increased activation of fibroblasts by auto-antibodies can be monitored by determining the levels of IL-16 and/or RANTES production in a patient. Altered levels of these chemoattractants can be detected in various biological samples in mammals, preferably humans. Levels of IL-16 and/or RANTES may be monitored in a patient, using standard techniques, as an indication of the deleterious aspects of the disease condition. Biological samples, including but not limited to serum, vitreous humor, aqueous humor, synovial fluid, and tissue, will be drawn from the patient using standard techniques. Particularly preferred are serum samples. The measurement of the IL-16 and RANTES levels may be monitored using any method possible to detect the levels of these proteins in biological samples. A preferred method of analysis is by ELISA as described in Sciaky, D. et al., J. Immunol. 164(7):3806-14, 2000. An ELISA specific for IL-16 can be used to assess the levels released by fibroblasts as described previously in Lim, K. G. et al., J. Immunol. 156(7): 2566-70, 1996. An ELISA specific for RANTES can be used according to the manufacturer's specification (BioSource Intl., Camarillo, Calif.).
The levels of IL-16 and RANTES were then assessed with specific ELISAs. The ELISA assay for IL-16 is performed essentially as discussed in Sciaky D., Brazer, W., Center, D. M., Cruikshank, W. W. and Smith, T. J.: Cultured human fibroblasts express constitutive IL-16 mRNA: Cytokine induction of active IL-16 protein synthesis through a caspase-3-dependent mechanism. J. Immunol. 164(7):3806-14, 2000). An ELISA (BioSource) for RANTES was performed according to the manufacturer's instructions. In an analysis of over a dozen strains, TAO specific IgG elicit substantial induction of IL-16 and RANTES and in no case were normal fibroblasts so affected.

Substance: IL-1β: pro-inflammatory cytokine used to activate fibroblasts
- IL-16 (strain 12, Orbit): 56 ± 10 pg/mL
- IL-16 (strain 14, Orbit): 68 ± 9 pg/mL
- IL-16 (strain 15, Extremity Skin): 138 ± 15 pg/mL
- IL-16 (strain 16, Extremity Skin): 98 ± 19 pg/mL
